Experimental data as given in US5502036A, “Antiherpes pentapeptide derivatives having a substituted aspartic acid side chain” (priority 1989, dated 1996).
Where a SMILES comes first, the peptide text is derived from it. [ ]: non-standard residue; d: D form. The star is where a group is joined. Gly(1-COOH-cBu) = N[C@H](C(=O)O)C1(C(=O)O)CCC1; Hydrocinnamoyl = O=C(CCc1ccccc1)*; Pentanoyl(4-Me) = CC(C)CCC(=O)*; O(2S-octyl) = CCCCCC[C@H](C)O*; NHPhenethyl = c1ccc(CCN*)cc1; Tle = CC(C)(C)[C@H](N)C(=O)O; NMeV = CN[C@H](C(=O)O)C(C)C; Pyrrolidide = C1CCN(*)C1; NHIsopentyl = CC(C)CCN*; Boc = CC(C)(C)OC(=O)*; X6 = CC(C)C[C@H](C)N*; X2 = CCCCCCCCCCCCO*; X4 = CCCCCCCCN(C)*

target: T1, HSV-1 ribonucleotide reductase (partially purified) (Human herpesvirus 1, UniProt P08543); test: biochemical; assay type: biochemical; conditions: not given
T1 construct: obtained from quiescent BHK-21/C13 cells infected with strain F HSV-1 virus; endogenous in cells; host or cells: quiescent BHK-21/C13 cells infected with HSV-1 strain F; enzyme partially purified (Cohen et al., J. Gen. Virol. 66, 733 (1985))
T1 sequence (P08543 whole entry): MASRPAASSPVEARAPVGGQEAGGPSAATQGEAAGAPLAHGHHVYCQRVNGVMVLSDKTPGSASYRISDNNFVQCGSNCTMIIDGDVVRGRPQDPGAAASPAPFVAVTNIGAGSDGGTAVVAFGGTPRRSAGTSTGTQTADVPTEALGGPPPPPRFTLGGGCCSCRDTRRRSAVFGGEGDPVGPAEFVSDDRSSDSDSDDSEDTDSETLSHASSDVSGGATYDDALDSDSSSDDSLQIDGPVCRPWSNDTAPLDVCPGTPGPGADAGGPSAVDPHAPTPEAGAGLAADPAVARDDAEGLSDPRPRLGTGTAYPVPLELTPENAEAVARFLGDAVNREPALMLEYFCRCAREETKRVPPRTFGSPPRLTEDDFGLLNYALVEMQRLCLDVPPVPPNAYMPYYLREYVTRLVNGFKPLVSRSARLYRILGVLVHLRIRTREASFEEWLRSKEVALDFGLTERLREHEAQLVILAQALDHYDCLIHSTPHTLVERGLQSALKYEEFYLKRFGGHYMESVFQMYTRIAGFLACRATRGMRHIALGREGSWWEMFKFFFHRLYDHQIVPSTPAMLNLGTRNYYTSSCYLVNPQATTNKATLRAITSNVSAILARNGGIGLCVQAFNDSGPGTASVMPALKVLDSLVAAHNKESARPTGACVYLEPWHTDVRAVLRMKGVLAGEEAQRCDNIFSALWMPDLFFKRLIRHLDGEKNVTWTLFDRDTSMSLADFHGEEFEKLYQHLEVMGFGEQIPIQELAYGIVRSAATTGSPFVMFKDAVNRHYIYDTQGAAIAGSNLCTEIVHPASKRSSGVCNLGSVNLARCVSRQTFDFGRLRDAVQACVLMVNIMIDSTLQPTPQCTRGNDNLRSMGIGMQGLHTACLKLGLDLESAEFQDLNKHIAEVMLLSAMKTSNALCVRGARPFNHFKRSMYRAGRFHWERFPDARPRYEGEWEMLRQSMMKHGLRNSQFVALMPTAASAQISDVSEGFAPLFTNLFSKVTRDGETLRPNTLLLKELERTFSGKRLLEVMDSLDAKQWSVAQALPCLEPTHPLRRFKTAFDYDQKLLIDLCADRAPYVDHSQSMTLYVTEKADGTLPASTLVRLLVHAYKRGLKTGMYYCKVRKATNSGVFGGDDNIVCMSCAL
From the text: b) Assay and Results for Exemplified Peptides

`CCCCCC[C@H](C)OC(=O)C[C@H](NC(=O)[C@@H](NC(=O)[C@H](C(C)C)N(C)C(=O)CCC(C)C)[C@@H](C)CC)C(=O)N[C@@H](CC(=O)O)C(=O)N[C@@H](CC(C)C)C(=O)O` [Entry 30, 4-Methylpentanoyl-N--Me--Val--Ile--Asp 1(S)-methylheptyloxy!-Asp--Leu--OH] ({Pentanoyl(4-Me)}-[NMeV]ID(O(2S-octyl))DL-OH) and `CCCCCC[C@H](C)OC(=O)C[C@H](NC(=O)[C@@H](NC(=O)[C@H](C(C)C)N(C)C(=O)CCc1ccccc1)[C@@H](C)CC)C(=O)N[C@@H](CC(=O)O)C(=O)N[C@@H](CC(C)C)C(N)=O` [Entry 31, PhCH2 CH2 CO--N--Me--Val--Ile--Asp 1(S)-methylheptyloxy!-Asp--Leu--NH2] (Hydrocinnamoyl-[NMeV]ID(O(2S-octyl))DL-NH2) are within 1.5-fold of each other in IC50: 1700 nM for the first, 1900 nM for the second.

Compared with `CCCCCCCCCCCCOC(=O)C[C@H](NC(=O)[C@@H](NC(=O)[C@H](C(C)C)N(C)C(=O)CCc1ccccc1)[C@@H](C)CC)C(=O)N[C@@H](CC(=O)O)C(=O)N[C@@H](CC(C)C)C(=O)O` [Entry 29, PhCH2 CH2 CO--N--Me--Val--Ile--Asp(dodecyloxy)-Asp--Leu--OH] (Hydrocinnamoyl-[NMeV]ID(X2)DL-OH), `CCCCCCCCN(C)C(=O)C[C@H](NC(=O)[C@@H](NC(=O)[C@H](C(C)C)N(C)C(=O)CCc1ccccc1)[C@@H](C)CC)C(=O)N[C@@H](CC(=O)O)C(=O)N[C@@H](CC(C)C)C(=O)O` [Entry 32, PhCH2 CH2 CO--N--Me--Val--Ile--Asp NMe(octyl)!-Asp--Leu--OH] (Hydrocinnamoyl-[NMeV]ID(X4)DL-OH) is 16-fold lower in IC50: 4200 nM for the first, 260 nM for the second. The second is the more potent here.

Compared with `CC[C@H](C)[C@H](NC(=O)[C@H](C(C)C)N(C)C(=O)CCc1ccccc1)C(=O)N[C@@H](CC(=O)N1CCCC1)C(=O)N[C@@H](CC(=O)O)C(=O)N[C@@H](C)CC(C)C` [Entry 41, PhCH2 CH2 CO--N--Me--Val--Ile--Asp(pyrrolidino)-Asp--NHCH(CH3)CH2 CH(CH3)2] (Hydrocinnamoyl-[NMeV]ID(Pyrrolidide)D-X6), `CC[C@H](C)[C@H](NC(=O)[C@H](C(C)C)N(C)C(=O)CCc1ccccc1)C(=O)N[C@@H](CC(=O)N1CCCC1)C(=O)N[C@@H](CC(=O)O)C(=O)NCCC(C)C` [Entry 38, PhCH2 CH2 CO--N--Me--Val--Ile--Asp(pyrrolidino)-Asp--NHCH2 CH2 CH(CH3)2] (Hydrocinnamoyl-[NMeV]ID(Pyrrolidide)D-NHIsopentyl) is 2-fold lower in IC50: 2600 nM for the first, 1300 nM for the second.

Compared with `CC(C)C[C@H](NC(=O)[C@@H](NC(=O)[C@H](CC(=O)N1CCCC1)NC(=O)[C@@H](NC(=O)[C@H](C(C)C)N(C)C(=O)CCc1ccccc1)C(C)(C)C)C1(C(=O)O)CCC1)C(=O)O` [Entry 33, PhCH2 CH2 CO--N--Me--Val--Tbg--Asp(pyrrolidino)-Asp(cyBu)-Leu--OH] (Hydrocinnamoyl-[NMeV][Tle]D(Pyrrolidide)[Gly(1-COOH-cBu)]L-OH), `CC[C@H](C)[C@H](NC(=O)[C@H](C(C)C)N(C)C(=O)CCc1ccccc1)C(=O)N[C@@H](CC(=O)N1CCCC1)C(=O)N[C@@H](CC(=O)O)C(=S)N[C@@H](CC(C)C)C(=O)O` [Entry 40, PhCH2 CH2 CO--N--Me--Val--Ile--Asp(pyrrolidino)-.PSI. CSNH!Asp--Leu--OH] is 2.7-fold higher in IC50: 60 nM for the first, 160 nM for the second. The first is the more potent here.

Compound `CCCCCC[C@H](C)OC(=O)C[C@H](NC(=O)[C@@H](NC(=O)[C@H](C(C)C)N(C)C(=O)CCc1ccccc1)[C@@H](C)CC)C(=O)N[C@@H](CC(=O)O)C(=O)N[C@@H](CC(C)C)C(=O)OC` [Entry 37, PhCH2 CH2 CO--N--Me--Val--Ile--Asp 1(S)-methylheptyloxy!-Asp--Leu--OCH3] (Hydrocinnamoyl-[NMeV]ID(O(2S-octyl))DL-OMe) has an IC50 of 2000 nM.

same assay, conditions: Table 4; concentration producing 50% of the maximal inhibition of enzyme activity; mean of four assays; read-out: IC50

`CC[C@H](C)[C@H](NC(=O)[C@H](C(C)C)N(C)C(=O)OC(C)(C)C)C(=O)N[C@@H](CC(=O)NCCc1ccccc1)C(=O)N[C@@H](CC(=O)O)C(=O)N[C@@H](CC(C)C)C(=O)O` [Entry 24, Boc--N--Me--Val--Ile--Asp(NHCH2 CH2 Ph)--Asp--Leu--OH] (Boc-[NMeV]ID(NHPhenethyl)DL-OH) showed an IC50 of 1600 nM.
